Experimental data published in patent US10131649B2, “Bicyclic compounds as pest control agents” (BAYER CROPSCIENCE AKTIENGESELLSCHAFT, priority 2014, dated 2018).
Where two headings read alike, the source gives them in different places.

What was measured:
[1] = system: green peach aphid (Myzus persicae); assay: Myzus persicae spray test (Chinese cabbage leaf discs); format: in vivo; conditions: foliar, 144 h, read-out: efficacy in %
Method: (§1) Myzus persicae—Spray Test
Solvent: • 78 parts by weight of acetone • 1.5 parts by weight of dimethylformamide
(§2) Emulsifier: alkylaryl polyglycol ether
(§3) To produce a suitable preparation of active compound, 1 part by weight of active compound is dissolved using the specified parts by weight of solvent and made up with water containing an emulsifier concentration of 1000 ppm until the desired concentration is attained. To produce further test concentrations, the formulation is diluted with emulsifier-containing water.
Discs of Chinese cabbage leaves (Brassica pekinensis) infested by all stages of the green peach aphid (Myzus persicae) are sprayed with an active compound formulation of the desired concentration.
After 6 days, the efficacy in % is determined. 100% means that all the aphids have been killed; 0% means that no aphids have been killed.

[2] = system: larvae of the mustard beetle (Phaedon cochleariae); assay: Phaedon cochleariae spray test; format: in vivo; conditions: application rate 500 g/ha; after 7 days; 100% = all beetle larvae killed
Method: Phaedon cochleariae—Spray Test
(§4) Solvent: • 78.0 parts by weight of acetone • 1.5 parts by weight of dimethylformamide
as §2, §3
Discs of Chinese cabbage leaves (Brassica pekinensis) are sprayed with an active compound preparation of the desired concentration and, after drying, populated with larvae of the mustard beetle (Phaedon cochleariae).
After 7 days, the efficacy in % is determined. 100% means that all the beetle larvae have been killed; 0% means that no beetle larvae have been killed.

[3] = system: caterpillars of the armyworm (Spodoptera frugiperda); assay: Spodoptera frugiperda spray test; format: in vivo; conditions: application rate 500 g/ha; after 7 days; maize leaf discs; 100% = all caterpillars killed
Method: Spodoptera frugiperda—Spray Test
as §4, §2, §3
Leaf discs of maize (Zea mays) are sprayed with an active compound formulation of the desired concentration and, after drying, populated with caterpillars of the armyworm (Spodoptera frugiperda).
After 7 days, the efficacy in % is determined. 100% means that all the caterpillars have been killed; 0% means that no caterpillar has been killed.

[4] = log P by HPLC on reversed-phase columns (OECD Guideline 117), [a] acidic pH 2.7, [b] neutral pH 7.8; format: physicochemical; conditions: reversed-phase (C18) HPLC column
Method: The log P values were determined in accordance with OECD Guideline 117 (EC Directive 92/69/EEC) by HPLC (high-performance liquid chromatography) using reversed-phase (RP) columns (C18), by the following methods:
[a] The LC-MS determination in the acidic range is carried out at pH 2.7 with 0.1% aqueous formic acid and acetonitrile (contains 0.1% formic acid) as eluents; linear gradient from 10% acetonitrile to 95% acetonitrile.
[b] LC-MS determination in the neutral range is effected at pH 7.8 with 0.001 molar aqueous ammonium hydrogencarbonate solution and acetonitrile as eluents; linear gradient from 10% acetonitrile to 95% acetonitrile.
Calibration is carried out using unbranched alkan-2-ones (having 3 to 16 carbon atoms) with known log P values (log P values determined on the basis of the retention times by linear interpolation between two successive alkanones).

[5] = system: green peach aphid (Myzus persicae); assay: Myzus persicae spray test (bell pepper plants); format: in vivo; conditions: application rate 4 ppm, after 6 days, 100% = all aphids killed
Method: as §1
Solvent: 7 parts by weight of dimethylformamide
as §2
as §3, with “water. If the addition of ammonium salts or/and penetrants is required, these are each added in a concentration of 1000 ppm to the formulation solution.” for “water.”
Bell pepper plants (Capsicum annuum) severely infested with the green peach aphid (Myzus persicae) are treated by spraying with the active compound formulation in the desired concentration.
After 6 days, the kill in % is determined. 100% means that all of the aphids have been killed; 0% means that none of the aphids have been killed.

[6] = system: nematode larvae (Cooperia curticei); assay: Cooperia curticei test; format: in vivo; conditions: application rate 20 ppm; after 5 days; 100% = all larvae killed
Method: (§5) Solvent: dimethyl sulphoxide
(§6) To produce a suitable preparation of active compound, 10 mg of active compound are mixed with 0.5 ml of dimethyl sulfoxide and the concentrate is diluted with “Ringer's solution” to the desired concentration.
Vessels containing the active compound preparation of the desired concentration are populated with about 40 nematode larvae (Cooperia curticei).
(§7) After 5 days, the kill in % is determined. 100% means that all the larvae have been killed; 0% means that none of the larvae have been killed.

[7] = system: larvae of the red stomach worm (Haemonchus contortus); assay: Haemonchus contortus test; format: in vivo; conditions: application rate 20 ppm; after 5 days; 100% = all larvae killed
Method: Haemonchus contortus—Test
as §5, §6
Vessels containing the active compound preparation of the desired concentration are populated with about 40 larvae of the red stomach worm (Haemonchus contortus).
as §7

[8] = system: southern root-knot nematode (Meloidogyne incognita); assay: Meloidogyne incognita test; format: in vivo; conditions: application rate 20 ppm; after 14 days; lettuce; 100% = no galls found
Method: Meloidogyne incognita—Test
Solvent: 125.0 parts by weight of acetone
To produce a suitable active compound preparation, 1 part by weight of active compound is mixed with the stated amount of solvent and the concentrate is diluted with water to the desired concentration.
Vessels are filled with sand, active compound solution, an egg/larvae suspension of the southern root-knot nematode (Meloidogyne incognita) and lettuce seeds. The lettuce seeds germinate and the plants develop. The galls develop on the roots.
After 14 days, the nematicidal efficacy in % is determined by the formation of galls. 100% means that no galls were found; 0% means that the number of galls on the treated plants corresponds to the untreated control.

[9] = system: greenhouse red spider mite (Tetranychus urticae); assay: Tetranychus urticae spray test, OP-resistant; format: in vivo; conditions: application rate 500 g/ha; after 6 days; bean leaf discs; 100% = all spider mites killed
Method: Tetranychus urticae—Spray Test, OP-Resistant
as §4, §2, §3
Discs of bean leaves (Phaseolus vulgaris) infested with all stages of the greenhouse red spider mite (Tetranychus urticae) are sprayed with an active compound formulation of the desired concentration.
After 6 days, the efficacy in % is determined. 100% means that all the spider mites have been killed; 0% means that no spider mites have been killed.

[10] = acidic pH 2.7, read-out: logP[a]
[11] = neutral pH 7.8, read-out: logP[b]

Fc1cncc(-n2cc3cc(C(F)(F)F)ccc3n2)c1 [Example 16]
pest or weed control at 500 g/ha [1]: 100% | efficacy in % [2]: 100%

CN(C)C(=O)c1ccc2nn(-c3cnn(C)c3)cc2c1 [Example 38]
efficacy in % [2]: 100% | efficacy in % [3]: 100%

Cc1cc(C)c(-c2ccc3nn(-c4cccnc4)cc3c2)cc1SCC(F)(F)F [Example 51, 5-[2,4-Dimethyl-5-(2,2,2-trifluoroethylsulphanyl)phenyl]-2-(3-pyridyl)indazole]
pest or weed control at 500 g/ha [1]: 90% | chromatographic logP [4, 10]: 4.42 | chromatographic logP [4, 11]: 4.4 | efficacy (kill in %) [5]: 100%

FC(F)(F)c1ccn(-c2ccc3nn(-c4cccnc4)cc3c2)n1 [Example 56, 2-(3-Pyridyl)-5-[3-(trifluoromethyl)pyrazol-1-yl]indazole]
pest or weed control at 500 g/ha [1]: 90% | chromatographic logP [4, 10]: 2.83 | chromatographic logP [4, 11]: 2.79 | efficacy (kill in %) [6]: 90%

c1cncc(-c2ccc3nn(-c4cccnc4)cc3c2)c1 [Example 57, 2,5-Bis(3-pyridyl)indazole]
pest or weed control at 500 g/ha [1]: 90% | chromatographic logP [4, 10]: 0.88 | chromatographic logP [4, 11]: 1.71 | efficacy (kill in %) [6]: 80%

Cc1ccc(-c2ccc3nn(-c4cccnc4)cc3c2)nc1 [Example 65]
pest or weed control at 500 g/ha [1]: 90% | efficacy (kill in %) [7]: 80% | chromatographic logP [4, 10]: 1.23 | chromatographic logP [4, 11]: 2.25 | efficacy (kill in %) [6]: 90%

Clc1ccc(-c2ccc3nn(-c4cccnc4)cc3c2)nc1 [Example 67]
pest or weed control at 500 g/ha [1]: 100% | efficacy (kill in %) [7]: 80% | chromatographic logP [4, 10]: 2.8 | chromatographic logP [4, 11]: 2.78 | efficacy (kill in %) [6]: 80%

CCSc1ccnc(-c2ccc3nn(-c4cccnc4)cc3c2)c1 [Example 76, 5-[4-(Ethylsulphanyl)pyridin-2-yl]-2-(pyridin-3-yl)-2H-indazole]
pest or weed control at 500 g/ha [1]: 90% | chromatographic logP [4, 10]: 1.62 | chromatographic logP [4, 11]: 2.84 | efficacy (kill in %) [6]: 80%

Cc1cc(C)c(SCC(F)(F)F)cc1NC(=O)c1ccc2nn(-c3cccnc3)cc2c1 [Example 81, N-{2,4-Dimethyl-5-[(2,2,2-trifluoroethyl)sulphanyl]phenyl}-2-(pyridin-3-yl)-2H-indazole-5-carboxamide]
pest or weed control at 500 g/ha [1]: 90% | chromatographic logP [4, 10]: 3.15 | chromatographic logP [4, 11]: 3.12

Cc1ccc(NC(=O)c2ccc3nn(-c4cccnc4)cc3c2)cc1SCC(F)(F)F [Example 82]
pest or weed control at 500 g/ha [1]: 90% | chromatographic logP [4, 10]: 3.22 | chromatographic logP [4, 11]: 3.15

CSCCNC(=O)c1ccc2nn(-c3cccnc3)cc2c1 [Example 85]
pest or weed control at 500 g/ha [1]: 90% | chromatographic logP [4, 10]: 1.45 | chromatographic logP [4, 11]: 1.5

CN(CC(F)F)C(=O)c1ccc2nn(-c3cccnc3)cc2c1 [Example 86]
pest or weed control at 500 g/ha [1]: 100% | chromatographic logP [4, 10]: 1.55 | chromatographic logP [4, 11]: 1.55

O=C(c1ccc2nn(-c3cccnc3)cc2c1)N1CCOCC1 [Example 87]
pest or weed control at 500 g/ha [1]: 100% | chromatographic logP [4, 10]: 1.14 | chromatographic logP [4, 11]: 1.16

O=C(c1ccc2nn(-c3cccnc3)cc2c1)N1CCCC1 [Example 88]
pest or weed control at 500 g/ha [1]: 100% | chromatographic logP [4, 10]: 1.43 | chromatographic logP [4, 11]: 1.48

CCN(CC)C(=O)c1ccc2nn(-c3cccnc3)cc2c1 [Example 89]
pest or weed control at 500 g/ha [1]: 100% | chromatographic logP [4, 10]: 1.63 | chromatographic logP [4, 11]: 1.65

CN(CC(F)(F)F)C(=O)c1ccc2nn(-c3cccnc3)cc2c1 [Example 90]
pest or weed control at 500 g/ha [1]: 90% | chromatographic logP [4, 10]: 1.84 | chromatographic logP [4, 11]: 1.87

Cc1cc(F)c(NC(=O)c2ccc3nn(-c4cccnc4)cc3c2)cc1SCC(F)(F)F [Example 91]
pest or weed control at 100 g/ha [1]: 90% | chromatographic logP [4, 10]: 3.22 | chromatographic logP [4, 11]: 3.12

O=C(c1ccc2nn(-c3cccnc3)cc2c1)N1CCSCC1 [Example 92]
pest or weed control at 500 g/ha [1]: 100% | chromatographic logP [4, 10]: 1.5 | chromatographic logP [4, 11]: 1.58

Cc1ccc(NC(=O)c2ccc3nn(-c4cccnc4)cc3c2)cc1[S+]([O-])CC(F)(F)F (stereo not drawn) [Example 94, N-{4-Methyl-3-[(2,2,2-trifluoroethyl)sulphinyl]phenyl}-2-(pyridin-3-yl)-2H-indazole-5-carboxamide]
pest or weed control at 500 g/ha [1]: 90% | chromatographic logP [4, 10]: 2.23 | chromatographic logP [4, 11]: 2.23

CS(=O)(=O)CCNC(=O)c1ccc2nn(-c3cccnc3)cc2c1 [Example 95]
pest or weed control at 500 g/ha [1]: 90% | chromatographic logP [4, 10]: 0.9 | chromatographic logP [4, 11]: 0.95

Cc1cc(F)c(NC(=O)c2ccc3nn(-c4cccnc4)cc3c2)cc1[S+]([O-])CC(F)(F)F (stereo not drawn) [Example 96]
pest or weed control at 500 g/ha [1]: 100% | chromatographic logP [4, 10]: 2.19 | chromatographic logP [4, 11]: 2.14

Cc1cc(C)c([S+]([O-])CC(F)(F)F)cc1NC(=O)c1ccc2nn(-c3cccnc3)cc2c1 (stereo not drawn) [Example 97]
pest or weed control at 500 g/ha [1]: 100% | chromatographic logP [4, 10]: 2.2 | chromatographic logP [4, 11]: 2.22

FC(F)(F)Cn1cc(-c2ccc3nn(-c4cccnc4)cc3c2)cn1 [Example 99, 2-(Pyridin-3-yl)-5-[1-(2,2,2-trifluoroethyl)-1H-pyrazol-4-yl]-2H-indazole]
pest or weed control at 500 g/ha [1]: 90% | nematicidal efficacy in % (formation of galls) [8]: 90% | chromatographic logP [4, 10]: 2.12 | chromatographic logP [4, 11]: 2.12

Fc1ccnc(-c2ccc3nn(-c4cccnc4)cc3c2)c1 [Example 101]
pest or weed control at 500 g/ha [1]: 90% | chromatographic logP [4, 10]: 2.04 | chromatographic logP [4, 11]: 2.21

Fc1cccc(-c2ccc3nn(-c4cccnc4)cc3c2)n1 [Example 104]
pest or weed control at 500 g/ha [1]: 90% | nematicidal efficacy in % (formation of galls) [8]: 90% | chromatographic logP [4, 10]: 2.4 | chromatographic logP [4, 11]: 2.44

Cc1cc(F)c(C(=O)N(C)c2ccc3nn(-c4cnn(C)c4)cc3c2)cc1[S+]([O-])CC(F)(F)F (stereo not drawn) [Example 117]
efficacy in % [9]: 90%
